How the values were obtained:
[1] = test system: ER-regulated genes PGR, GREB1, TFF1/pS2; test: qPCR of ER target genes in MCF-7 cells; format: cell-based; conditions: MCF-7 in normal FBS-containing media, ~1 pM E2
[2] = test system: primary female mouse myotubes; test: Primary myotube size by high-content imaging; format: cell-based; conditions: 50 pM, 5 d
[3] = test system: Greb1 expression; test: Greb1 qPCR in primary myotubes; format: cell-based, mouse; conditions: steroid-free conditions, 24 h
[4] = test system: MCF-7 WT cells; test: Cell proliferation assay, MCF-7 WT; conditions: MCF-7 with ER-WT, charcoal-stripped FBS, 5 d

## C[C@]12CC[C@@H]3c4ccc(O)cc4CC[C@H]3[C@@H]1CC[C@@H]2O [Compound E2, 17β-estradiol]
[1]
  Gene expression profile in full media (in words): less induction of gene expression
[2]
  Myotube diameter / tube area (in words): maintained primary myotube diameter
[3]
  Greb1 expression dose response (in words): biphasic with an inflection point below the ligand Kd
[4]
  Effect on proliferation (activity profile, in words): induced cell growth at doses 2 logs below the Kd

— publication PMC11181081 (Proceedings of the National Academy of Sciences of the …, 2024)
